Laboratory results as given in US4985412A, “Phosphoric acid ester, process for preparing the same, and detergent composition containing the same” (Kao Corporation, priority 1987, dated 1991).

Assays:
Krafft point = type: physicochemical
[1] = Foaming capability (Reverse Stirring Method); type: physicochemical; conditions: for Foaming capability (Foam volume): reverse stirring, 40 °C, 1,000 rpm, 30 sec (reversed at every 5 sec), measured after 10 sec
Description: * The conditions of the reverse stirring
Rotation speed: 1,000 rpm
Stirring time: 30 sec. (reversed at every 5 sec.)
Measurement: performed after the test sample was left for 10 sec.

[2] = comparison with sodium dodecyl phosphate, in words

Krafft point (Krafft point) [°C] | Foaming capability (Foam volume) [1] [mL] | Krafft point compared with sodium dodecyl phosphate (Krafft point; [2]) | Foaming capability compared with sodium dodecyl phosphate [1, 2] | Structure (SMILES)
32 | 260 |  |  | CCCCCCCCCCCCOP(=O)(O)O [1-sodium dodecyl phosphate]
< 0 | 250 | extremely lower Krafft point | almost the same foaming capability | CCCCCCCCCCCCOP(=O)(O)OCC(O)CN(C)CC(=O)O (centres unmarked) [Example 1, sodium dodecyl 2-hydroxy-3-N-carboxymethyl-N-methylammoniopropyl phosphate]

Structure (SMILES) | Krafft point (Krafft point) [°C] | Foaming capability (Foam volume) [1] [mL] | Krafft point compared with sodium dodecyl phosphate (Krafft point; [2]) | Foaming capability compared with sodium dodecyl phosphate [1, 2]
CCCCCCCCCCCCOP(=O)([O-])OCC(O)CO.[Na+] (centres unmarked) [sodium dodecyl 2,3-dihydroxypropyl phosphate] | < 0 | 240 |  | 
